# US11993599B2, “Therapeutic compounds” (Genentech, Inc., priority 2021, dated 2024)
# Assays:
# BRM = BRM (Homo sapiens, UniProt P51531); assay: Immunofluorescence assay for BRM degradation in SW1573 cells; assay type: cell-based; design: treated overnight at 4° C. with either BRM primary antibody (Cell signaling Cat #11966) or BRG primary antibody; endogenous in cells; host or cells: SW1573; conditions: 20 hours incubation; for DC50: immunofluorescence mean nuclear signal, read-out: BRM IF Degradation IC50; for BRM IF Degradation Sinf (%): normalized to a known degrader control
# Chain of BRM (P51531 whole entry): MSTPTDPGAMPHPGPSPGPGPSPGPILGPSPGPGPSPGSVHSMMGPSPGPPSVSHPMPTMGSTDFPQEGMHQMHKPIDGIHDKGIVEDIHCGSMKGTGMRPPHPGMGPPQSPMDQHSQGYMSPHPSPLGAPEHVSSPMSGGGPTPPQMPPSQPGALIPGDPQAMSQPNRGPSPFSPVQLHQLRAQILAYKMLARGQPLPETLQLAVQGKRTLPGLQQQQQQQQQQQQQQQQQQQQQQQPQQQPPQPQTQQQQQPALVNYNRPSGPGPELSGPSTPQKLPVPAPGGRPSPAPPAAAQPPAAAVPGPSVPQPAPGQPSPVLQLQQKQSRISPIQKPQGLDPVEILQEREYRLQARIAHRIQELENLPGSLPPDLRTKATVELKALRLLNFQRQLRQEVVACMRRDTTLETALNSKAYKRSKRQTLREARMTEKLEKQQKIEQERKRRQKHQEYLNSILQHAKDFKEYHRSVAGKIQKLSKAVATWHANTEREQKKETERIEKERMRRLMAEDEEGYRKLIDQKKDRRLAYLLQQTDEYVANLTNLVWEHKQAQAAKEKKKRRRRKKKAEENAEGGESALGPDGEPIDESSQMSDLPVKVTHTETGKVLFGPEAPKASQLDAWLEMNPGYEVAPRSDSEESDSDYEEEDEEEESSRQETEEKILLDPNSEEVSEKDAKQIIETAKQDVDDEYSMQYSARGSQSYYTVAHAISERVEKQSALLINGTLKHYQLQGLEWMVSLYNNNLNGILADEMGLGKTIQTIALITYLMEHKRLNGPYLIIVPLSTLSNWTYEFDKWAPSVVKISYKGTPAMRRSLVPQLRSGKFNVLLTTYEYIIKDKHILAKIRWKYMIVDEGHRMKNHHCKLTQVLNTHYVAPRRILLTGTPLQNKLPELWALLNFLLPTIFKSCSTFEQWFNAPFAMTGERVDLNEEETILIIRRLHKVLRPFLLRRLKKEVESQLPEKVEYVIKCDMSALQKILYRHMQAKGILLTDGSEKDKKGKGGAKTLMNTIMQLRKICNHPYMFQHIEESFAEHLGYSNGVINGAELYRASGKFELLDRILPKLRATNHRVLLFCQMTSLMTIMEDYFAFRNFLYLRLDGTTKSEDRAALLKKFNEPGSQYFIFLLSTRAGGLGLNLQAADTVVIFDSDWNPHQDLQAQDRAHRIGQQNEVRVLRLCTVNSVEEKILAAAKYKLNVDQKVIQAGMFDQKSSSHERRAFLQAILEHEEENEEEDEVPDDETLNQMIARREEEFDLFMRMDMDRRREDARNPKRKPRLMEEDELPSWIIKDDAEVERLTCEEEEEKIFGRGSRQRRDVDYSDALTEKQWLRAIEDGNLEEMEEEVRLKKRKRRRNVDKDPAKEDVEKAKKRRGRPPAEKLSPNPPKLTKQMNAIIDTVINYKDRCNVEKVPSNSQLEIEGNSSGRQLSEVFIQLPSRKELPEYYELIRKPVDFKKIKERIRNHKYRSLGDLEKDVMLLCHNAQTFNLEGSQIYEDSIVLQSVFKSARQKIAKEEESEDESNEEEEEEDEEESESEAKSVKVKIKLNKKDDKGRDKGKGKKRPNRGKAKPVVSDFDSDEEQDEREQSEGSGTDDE
# Outline: (§1)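 Imaging-based readout in SW1573: 20 h dosing, formaldehyde fixation, antibody staining for either remodeler, nuclear intensity per cell quantified. Values normalized to control degrader; floating-maximum fit.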
# BRG1 = target: T1, BRG1 (Homo sapiens, UniProt P51532); assay: Immunofluorescence assay for BRG1 degradation in SW1573 cells; assay type: cell-based; conditions: 20 hours incubation; for DC50: immunofluorescence mean nuclear signal, read-out: BRG1 IF Degradation IC50; for Dmax: SW1573, 20 h, normalized to a known degrader control, read-out: BRG1 IF Degradation Sinf (%)
# T1 construct: either BRM primary antibody (Cell signaling Cat #11966) or BRG primary antibody (Abcam, ab 110641); endogenous in cells; host or cells: SW1573
# T1 sequence (P51532 whole entry): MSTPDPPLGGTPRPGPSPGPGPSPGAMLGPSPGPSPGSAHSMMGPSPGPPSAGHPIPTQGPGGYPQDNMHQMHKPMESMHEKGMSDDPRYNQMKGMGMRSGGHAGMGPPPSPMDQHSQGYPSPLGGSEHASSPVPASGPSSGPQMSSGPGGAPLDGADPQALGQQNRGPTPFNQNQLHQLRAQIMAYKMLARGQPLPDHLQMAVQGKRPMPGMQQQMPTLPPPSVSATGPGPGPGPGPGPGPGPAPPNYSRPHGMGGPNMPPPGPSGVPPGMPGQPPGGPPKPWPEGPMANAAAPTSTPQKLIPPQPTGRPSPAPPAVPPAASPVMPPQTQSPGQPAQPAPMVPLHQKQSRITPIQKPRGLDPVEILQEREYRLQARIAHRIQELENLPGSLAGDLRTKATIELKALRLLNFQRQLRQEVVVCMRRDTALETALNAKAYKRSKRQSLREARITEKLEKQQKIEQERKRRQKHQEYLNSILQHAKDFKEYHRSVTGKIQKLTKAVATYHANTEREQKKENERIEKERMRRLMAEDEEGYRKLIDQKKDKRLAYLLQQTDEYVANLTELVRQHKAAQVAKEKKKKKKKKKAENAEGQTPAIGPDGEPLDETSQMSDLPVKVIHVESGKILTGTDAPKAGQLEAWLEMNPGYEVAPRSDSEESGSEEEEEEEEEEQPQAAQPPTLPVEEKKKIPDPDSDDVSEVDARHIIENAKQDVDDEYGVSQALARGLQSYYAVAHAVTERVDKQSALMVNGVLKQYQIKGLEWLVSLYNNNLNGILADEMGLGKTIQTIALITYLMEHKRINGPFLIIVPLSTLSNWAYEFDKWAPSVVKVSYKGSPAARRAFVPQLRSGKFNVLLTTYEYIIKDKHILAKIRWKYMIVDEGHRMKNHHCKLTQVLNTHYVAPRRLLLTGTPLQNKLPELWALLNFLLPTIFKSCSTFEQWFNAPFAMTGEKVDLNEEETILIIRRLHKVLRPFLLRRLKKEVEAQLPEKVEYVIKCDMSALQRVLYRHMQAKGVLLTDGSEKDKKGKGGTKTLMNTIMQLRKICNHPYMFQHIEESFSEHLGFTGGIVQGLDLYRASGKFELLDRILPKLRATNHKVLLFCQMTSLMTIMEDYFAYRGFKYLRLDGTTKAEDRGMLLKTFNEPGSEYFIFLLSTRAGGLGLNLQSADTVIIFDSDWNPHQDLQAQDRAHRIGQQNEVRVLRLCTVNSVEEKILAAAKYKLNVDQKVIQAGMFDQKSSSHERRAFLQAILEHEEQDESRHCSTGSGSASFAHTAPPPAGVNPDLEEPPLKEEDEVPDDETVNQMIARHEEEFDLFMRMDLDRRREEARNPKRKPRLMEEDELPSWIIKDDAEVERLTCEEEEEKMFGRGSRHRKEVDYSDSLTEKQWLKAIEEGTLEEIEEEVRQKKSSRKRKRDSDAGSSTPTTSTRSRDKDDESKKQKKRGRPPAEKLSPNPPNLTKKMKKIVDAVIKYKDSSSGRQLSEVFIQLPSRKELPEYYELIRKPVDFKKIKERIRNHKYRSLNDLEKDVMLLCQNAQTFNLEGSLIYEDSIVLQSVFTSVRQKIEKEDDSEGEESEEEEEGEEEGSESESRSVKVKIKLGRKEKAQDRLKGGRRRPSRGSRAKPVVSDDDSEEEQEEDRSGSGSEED
# Outline: as §1
SMILES,DC50 (BRM),BRM IF Degradation Sinf (%) (BRM),DC50 (BRG1),Dmax (BRG1)
"Nc1nnc(-c2ccccc2O)cc1N1CC2CCC(C1)N2c1ccnc(C#CCN2CCN3CCCC3C2)c1 (centres unmarked) [Compound 67, 2-[5-[8-[2-[3-(3,4,6,7,8,8a-hexahydro-1H-pyrrolo[1,2-a]pyrazin-2-yl)prop-1-ynyl]-4-pyridyl]-3,8-diazabicyclo[3.2.1]octan-3-yl]-6-amino-pyridazin-3-yl]phenol]",10 to 100 nM,E (E indicates −30%-−70%),< 10 nM,0 to 30%
"Nc1nnc(-c2ccccc2O)cc1N1CC2CCC(C1)N2c1ccnc(C#CCN2CCCC3(CC3)C2)c1 [Compound 99, 2-[6-amino-5-[8-[2-[3-(5-azaspiro[2.5]octan-5-yl)prop-1-ynyl]-4-pyridyl]-3,8-diazabicyclo[3.2.1]octan-3-yl]pyridazin-3-yl]phenol]",< 10 nM,E (E indicates −30%-−70%),< 10 nM,30 to 70%
"Nc1nnc(-c2ccccc2O)cc1N1CC2CCC(C1)N2c1ccnc(C#CCN2CC3CC(C2)C3O)c1 (centres unmarked) [Compound 126, 3-[3-[4-[3-[3-amino-6-(2-hydroxyphenyl)pyridazin-4-yl]-3,8-diazabicyclo[3.2.1]octan-8-yl]-2-pyridyl]prop-2-ynyl]-3-azabicyclo[3.1.1]heptan-6-ol]",< 10 nM,E (E indicates −30%-−70%),< 10 nM,0 to 30%
"COC1(C)CN(CC#Cc2cc(N3C4CCC3CN(c3cc(-c5ccccc5O)nnc3N)C4)ccn2)C1 [Compound 169, 2-[6-amino-5-[8-[2-[3-(3-methoxy-3-methyl-azetidin-1-yl)prop-1-ynyl]-4-pyridyl]-3,8-diazabicyclo[3.2.1]octan-3-yl]pyridazin-3-yl]phenol]",< 10 nM,E (E indicates −30%-−70%),10 to 100 nM,30 to 70%
"Nc1nnc(-c2ccccc2O)cc1N1CC2CCC(C1)N2c1ccnc(C#CCN2CC3CCCC32)c1 (centres unmarked) [Compound 162, 2-(5-(8-(2-(3-(6-azabicyclo[3.2.0]heptan-6-yl)prop-1-yn-1-yl)pyridin-4-yl)-3,8-diazabicyclo[3.2.1]octan-3-yl)-6-aminopyridazin-3-yl)phenol]",< 10 nM,F (F indicates −71%-−120%),< 10 nM,30 to 70%
"Nc1nnc(-c2ccccc2O)cc1N1CC2CCC(C1)N2c1ccnc(C#CCN2CCn3ccnc3C2)c1 [Compound 53, 2-[6-amino-5-[8-[2-[3-(6,8-dihydro-5H-imidazo[1,2-a]pyrazin-7-yl)prop-1-ynyl]-4-pyridyl]-3,8-diazabicyclo[3.2.1]octan-3-yl]pyridazin-3-yl]phenol]",10 to 100 nM,E (E indicates −30%-−70%),10 to 100 nM,0 to 30%
"Nc1nnc(-c2ccccc2O)cc1N1CC2CCC(C1)N2c1ccnc(C#CCN2CCCCCC2CO)c1 (centres unmarked) [Compound 216, 2-[6-amino-5-[8-[2-[3-[2-(hydroxymethyl)azepan-1-yl]prop-1-ynyl]-4-pyridyl]-3,8-diazabicyclo[3.2.1]octan-3-yl]pyridazin-3-yl]phenol]",< 10 nM,F (F indicates −71%-−120%),< 10 nM,71 to 120%
"Nc1nnc(-c2ccccc2O)cc1N1CC2CCC(C1)N2c1ccnc(C#CCN2CC(F)C2)c1 [Compound 228, 2-[6-amino-5-[8-[2-[3-(3-fluoroazetidin-1-yl)prop-1-ynyl]-4-pyridyl]-3,8-diazabicyclo[3.2.1]octan-3-yl]pyridazin-3-yl]phenol]",< 10 nM,E (E indicates −30%-−70%),< 10 nM,0 to 30%
"Nc1nnc(-c2ccccc2O)cc1N1CC2CCC(C1)N2c1ccnc(C#CCN2CCn3cncc3C2)c1 [Compound 72, 2-[6-amino-5-[8-[2-[3-(6,8-dihydro-5H-imidazo[1,5-a]pyrazin-7-yl)prop-1-ynyl]-4-pyridyl]-3,8-diazabicyclo[3.2.1]octan-3-yl]pyridazin-3-yl]phenol]",10 to 100 nM,E (E indicates −30%-−70%),> 100 nM,
"CNC(=O)C12CC(CN1CC#Cc1cc(N3C4CCC3CN(c3cc(-c5ccccc5O)nnc3N)C4)ccn1)C2 [Compound 148, 2-[3-[4-[3-[3-amino-6-(2-hydroxyphenyl)pyridazin-4-yl]-3,8-diazabicyclo[3.2.1]octan-8-yl]-2-pyridyl]prop-2-ynyl]-N-methyl-2-azabicyclo[2.1.1]hexane-1-carboxamide]",10 to 100 nM,E (E indicates −30%-−70%),> 100 nM,30 to 70%
"Nc1nnc(-c2ccccc2O)cc1N1CC2CCC(C1)N2c1ccnc(C#CCN2CC(F)(F)C2)c1 [Compound 223, 2-[6-amino-5-[8-[2-[3-(3,3-difluoroazetidin-1-yl)prop-1-ynyl]-4-pyridyl]-3,8-diazabicyclo[3.2.1]octan-3-yl]pyridazin-3-yl]phenol]",10 to 100 nM,E (E indicates −30%-−70%),< 10 nM,30 to 70%
"CC1CCCCCN1CC#Cc1cc(N2C3CCC2CN(c2cc(-c4ccccc4O)nnc2N)C3)ccn1 (centres unmarked) [Compound 201, 2-[6-amino-5-[8-[2-[3-(2-methylazepan-1-yl)prop-1-ynyl]-4-pyridyl]-3,8-diazabicyclo[3.2.1]octan-3-yl]pyridazin-3-yl]phenol]",< 10 nM,F (F indicates −71%-−120%),< 10 nM,30 to 70%
"Nc1nnc(-c2ccccc2O)cc1N1CC2CCC(C1)N2c1ccnc(C#CCN2CCCC(O)C2)c1 (centres unmarked) [Compound 50, 1-[3-[4-[3-[3-amino-6-(2-hydroxyphenyl)pyridazin-4-yl]-3,8-diazabicyclo[3.2.1]octan-8-yl]-2-pyridyl]prop-2-ynyl]piperidin-3-ol]",10 to 100 nM,E (E indicates −30%-−70%),> 100 nM,30 to 70%
"CC1CCN(CC#Cc2cc(N3C4CCC3CN(c3cc(-c5ccccc5O)nnc3N)C4)ccn2)CCC1(C)O (centres unmarked) [Compound 239, 1-[3-[4-[3-[3-amino-6-(2-hydroxyphenyl)pyridazin-4-yl]-3,8-diazabicyclo[3.2.1]octan-8-yl]-2-pyridyl]prop-2-ynyl]-4,5-dimethyl-azepan-4-ol]",< 10 nM,E (E indicates −30%-−70%),< 10 nM,30 to 70%
"CS(=O)(=O)C1CN(CC#Cc2cc(N3C4CCC3CN(c3cc(-c5ccccc5O)nnc3N)C4)ccn2)C1 [Compound 227, 2-[6-amino-5-[8-[2-[3-(3-methylsulfonylazetidin-1-yl)prop-1-ynyl]-4-pyridyl]-3,8-diazabicyclo[3.2.1]octan-3-yl]pyridazin-3-yl]phenol]",> 100 nM,E (E indicates −30%-−70%),> 100 nM,
"Oc1ccccc1-c1cc2c(nn1)NC[C@@H]1CN(c3ccnc(C#CCN4CCCCCC4)c3)CCN21 (single isomer, unassigned) [Compound 253]",< 10 nM,F (F indicates −71%-−120%),< 10 nM,71 to 120%
